# Data: ChEMBL document CHEMBL3885881, “DrugMatrix”
# Species: Rattus norvegicus
# Experiment: DrugMatrix - Regimen: Daily Repeat
# Type: toxicity, organism-based, Sprague-Dawley
# Parameters: regimen Daily Repeat, gender Male, age 6-8 weeks
# Details: in vivo, iv, vehicle 100 % SALINE; for ABSOLUTE BASOPHIL / ABSOLUTE EOSINOPHIL / ABSOLUTE LYMPHOCYTE / ABSOLUTE MONOCYTE / ABSOLUTE SEGMENTED NEUTROPHIL / BASOPHIL / EOSINOPHIL / ERYTHROCYTE COUNT / HEMATOCRIT / HEMOGLOBIN / LEUKOCYTE COUNT / LYMPHOCYTE / MEAN CORPUSCULAR HEMOGLOBIN / MEAN CORPUSCULAR HEMOGLOBIN CONCENTRATION / MEAN CORPUSCULAR VOLUME / MONOCYTE / NEUTROPHIL / NUCLEATED RED BLOOD CELLS / PLATELET COUNT: tissue Blood; for ALANINE AMINOTRANSFERASE / ALBUMIN / ALKALINE PHOSPHATASE / ASPARTATE AMINOTRANSFERASE / BLOOD UREA NITROGEN / CARBON DIOXIDE / CHLORIDE / CHOLESTEROL / CREATINE PHOSPHOKINASE / CREATININE / GLUCOSE / LACTATE DEHYDROGENASE / LIPASE / PHOSPHORUS / POTASSIUM / SODIUM / TOTAL BILIRUBIN / TOTAL PROTEIN / URIC ACID: tissue Plasma
# [1] = 0 mg/kg, 72 h, dose level Control, time 3 day
# [2] = 0 mg/kg, 120 h, dose level Control, time 5 day
# [3] = […], 72 h, dose 0.24 mg/Kg, dose level Low, time 3 day
# [4] = […], 72 h, dose 2.5 mg/Kg, dose level High, time 3 day
compound,measurement,setting,value
CC[C@@]1(O)C(=O)OCc2c1cc1n(c2=O)Cc2cc3ccccc3nc2-1 [CAMPTOTHECIN],ABSOLUTE BASOPHIL,[1],0 CELLS/uL
same,ABSOLUTE EOSINOPHIL,[1],21.67 CELLS/uL
same,ABSOLUTE LYMPHOCYTE,[1],10193.67 CELLS/uL
same,ABSOLUTE MONOCYTE,[1],165.83 CELLS/uL
same,ABSOLUTE SEGMENTED NEUTROPHIL,[1],702.17 CELLS/uL
same,BASOPHIL,[1],0%
same,EOSINOPHIL,[1],0.17%
same,ERYTHROCYTE COUNT,[1],5.39 x10E6/uL
same,HEMATOCRIT,[1],34.62%
same,HEMOGLOBIN,[1],13.8 G/DL
same,LEUKOCYTE COUNT,[1],11.08 x10E3/uL
same,LYMPHOCYTE,[1],91.83%
same,MEAN CORPUSCULAR HEMOGLOBIN,[1],25.68 pg
same,MEAN CORPUSCULAR HEMOGLOBIN CONCENTRATION,[1],39.9 G/DL
same,MEAN CORPUSCULAR VOLUME,[1],64.37 fL
same,MONOCYTE,[1],1.5%
same,NEUTROPHIL,[1],6.5%
same,NUCLEATED RED BLOOD CELLS,[1],0 /100WBC
same,PLATELET COUNT,[1],1202.83 x10E3/uL
same,ALANINE AMINOTRANSFERASE,[1],55.5 u/L
same,ALBUMIN,[1],4.22 G/DL
same,ALKALINE PHOSPHATASE,[1],406.83 u/L
same,ASPARTATE AMINOTRANSFERASE,[1],101.5 u/L
same,BLOOD UREA NITROGEN,[1],13.5 mg/dL
same,CARBON DIOXIDE,[1],30.33 mmol/L
same,CHLORIDE,[1],102.17 MEQ/L
same,CHOLESTEROL,[1],63.67 mg/dL
same,CREATINE PHOSPHOKINASE,[1],732.67 u/L
same,CREATININE,[1],0.2 mg/dL
same,GLUCOSE,[1],157 mg/dL
same,LACTATE DEHYDROGENASE,[1],442.5 u/L
same,LIPASE,[1],10.83 u/L
same,PHOSPHORUS,[1],12.68 mg/dL
same,POTASSIUM,[1],5.67 MEQ/L
same,SODIUM,[1],144 MEQ/L
same,TOTAL BILIRUBIN,[1],0.15 mg/dL
same,TOTAL PROTEIN,[1],6.02 G/DL
same,URIC ACID,[1],1.55 mg/dL
same,ABSOLUTE BASOPHIL,[2],0 CELLS/uL
same,ABSOLUTE EOSINOPHIL,[2],17 CELLS/uL
same,ABSOLUTE LYMPHOCYTE,[2],11849.17 CELLS/uL
same,ABSOLUTE MONOCYTE,[2],69.83 CELLS/uL
same,ABSOLUTE SEGMENTED NEUTROPHIL,[2],730.67 CELLS/uL
same,BASOPHIL,[2],0%
same,EOSINOPHIL,[2],0.17%
same,ERYTHROCYTE COUNT,[2],5.93 x10E6/uL
same,HEMATOCRIT,[2],37.42%
same,HEMOGLOBIN,[2],14.4 G/DL
same,LEUKOCYTE COUNT,[2],12.67 x10E3/uL
same,LYMPHOCYTE,[2],93.17%
same,MEAN CORPUSCULAR HEMOGLOBIN,[2],24.32 pg
same,MEAN CORPUSCULAR HEMOGLOBIN CONCENTRATION,[2],38.5 G/DL
same,MEAN CORPUSCULAR VOLUME,[2],63.08 fL
same,MONOCYTE,[2],0.5%
same,NEUTROPHIL,[2],6.17%
same,NUCLEATED RED BLOOD CELLS,[2],0 /100WBC
same,PLATELET COUNT,[2],1170.5 x10E3/uL
same,ALANINE AMINOTRANSFERASE,[2],51 u/L
same,ALBUMIN,[2],4.12 G/DL
same,ALKALINE PHOSPHATASE,[2],392.67 u/L
same,ASPARTATE AMINOTRANSFERASE,[2],81.67 u/L
same,BLOOD UREA NITROGEN,[2],16.17 mg/dL
same,CARBON DIOXIDE,[2],30.67 mmol/L
same,CHLORIDE,[2],100.5 MEQ/L
same,CHOLESTEROL,[2],64.83 mg/dL
same,CREATINE PHOSPHOKINASE,[2],242.67 u/L
same,CREATININE,[2],0.2 mg/dL
same,GLUCOSE,[2],186.83 mg/dL
same,LACTATE DEHYDROGENASE,[2],188 u/L
same,LIPASE,[2],10.83 u/L
same,PHOSPHORUS,[2],11.67 mg/dL
same,POTASSIUM,[2],5.51 MEQ/L
same,SODIUM,[2],142.55 MEQ/L
same,TOTAL BILIRUBIN,[2],0.22 mg/dL
same,TOTAL PROTEIN,[2],6.08 G/DL
same,URIC ACID,[2],1.85 mg/dL
same,ABSOLUTE BASOPHIL,[3],0 CELLS/uL
same,ABSOLUTE EOSINOPHIL,[3],41.67 CELLS/uL
same,ABSOLUTE LYMPHOCYTE,[3],12074 CELLS/uL
same,ABSOLUTE MONOCYTE,[3],83.33 CELLS/uL
same,ABSOLUTE SEGMENTED NEUTROPHIL,[3],834.33 CELLS/uL
same,BASOPHIL,[3],0%
same,EOSINOPHIL,[3],0.33%
same,ERYTHROCYTE COUNT,[3],5.45 x10E6/uL
same,HEMATOCRIT,[3],34.8%
same,HEMOGLOBIN,[3],13.63 G/DL
same,LEUKOCYTE COUNT,[3],13.03 x10E3/uL
same,LYMPHOCYTE,[3],92.67%
same,MEAN CORPUSCULAR HEMOGLOBIN,[3],25.13 pg
same,MEAN CORPUSCULAR HEMOGLOBIN CONCENTRATION,[3],39.23 G/DL
same,MEAN CORPUSCULAR VOLUME,[3],63.97 fL
same,MONOCYTE,[3],0.67%
same,NEUTROPHIL,[3],6.33%
same,NUCLEATED RED BLOOD CELLS,[3],0 /100WBC
same,PLATELET COUNT,[3],732.67 x10E3/uL
same,ABSOLUTE BASOPHIL,[4],0 CELLS/uL
same,ABSOLUTE EOSINOPHIL,[4],0 CELLS/uL
same,ABSOLUTE LYMPHOCYTE,[4],9985 CELLS/uL
same,ABSOLUTE MONOCYTE,[4],46 CELLS/uL
same,ABSOLUTE SEGMENTED NEUTROPHIL,[4],602.33 CELLS/uL
same,BASOPHIL,[4],0%
same,EOSINOPHIL,[4],0%
same,ERYTHROCYTE COUNT,[4],5.09 x10E6/uL
same,HEMATOCRIT,[4],32.33%
same,HEMOGLOBIN,[4],13.2 G/DL
same,LEUKOCYTE COUNT,[4],10.63 x10E3/uL
same,LYMPHOCYTE,[4],94%
same,MEAN CORPUSCULAR HEMOGLOBIN,[4],25.93 pg
same,MEAN CORPUSCULAR HEMOGLOBIN CONCENTRATION,[4],40.87 G/DL
same,MEAN CORPUSCULAR VOLUME,[4],63.53 fL
same,MONOCYTE,[4],0.33%
same,NEUTROPHIL,[4],5.67%
same,NUCLEATED RED BLOOD CELLS,[4],0 /100WBC
same,PLATELET COUNT,[4],1247.67 x10E3/uL
